In general, IC50 refers to the concentration at which inhibition is half-maximal.

The structures appear in SMILES notation. Where a name gives a salt, the structure may show the parent alone.

Drawing on patent publication US11124518B2, “L,2-dihydro-3H-pyrazolo[3,4-D]pyrimidin-3-one analogs” (Recurium IP Holdings, LLC, priority 2017, dated 2021), this text covers IC50 for seven compounds.

Test [1] addresses Wee1 kinase (Homo sapiens (Human), UniProt P30291). Kind of test: Wee1 Binding Assay (FRET). The following applies: Wee1 kinase 2 nM, tracer 178 50 nM, 60 min at RT, read-out: Wee1 Enzymatic IC50. The protocol: Wee 1 kinase was determined by using Flurorescence Resonance Energy Transfer (FRET) assay. […] The plate was shaken for 30 seconds, incubated for 60 min at RT, and recorded on fluorescence plate reader.

In test [2] the test system is SW480 cells. Kind of test: SW480 Cellular Proliferation Assay (CellTiter-Glo). The settings on record: Homo sapiens, 96 h, 4 days. Format: cell-based. The procedure: Cells were treated with compounds diluted in DMSO and a 10 point 3-fold serial dilutions. Plates were placed in 37° C., 5% CO2 for to incubate for 4 days. Before they were developed by adding 100 μL of CellTiter-Glo reagent (Promega) to the assay plate, plates were shaken briefly for 2 mins and allowed to incubate at RT for 60 mins. The bottom of the plates was pasted with white back seal and luminescence was recorded with Enspire or Envision.

The subject of test [3] is H23 cells. In words: H23 Cellular Proliferation Assay (CellTiter-Glo). The settings on record: Homo sapiens, NCI-H23, 96 h, 4 days. Format: cell-based. The procedure:
Cells were treated with compounds diluted in DMSO and a 9 point 5-fold serial dilutions. Plates were placed in 37° C., 5% CO2 to incubate for 4 days. Before they were developed by adding 100 μL of CellTiter-Glo reagent (Promega) to the assay plate, plates were shaken briefly for 2 mins and allowed to incubate at RT for 10 mins. The plates are read with a M5e plate reader according to CellTiter-Glo protocol. The GraphPad Prism software was used to get IC50 values. The bottom of the plates was pasted with white back seal and luminescence was recorded with Enspire or Envision.
In general terms: ATP-based viability assays read luminescence as a measure of living cells.

Wee1 kinase, sequence (P30291 whole entry): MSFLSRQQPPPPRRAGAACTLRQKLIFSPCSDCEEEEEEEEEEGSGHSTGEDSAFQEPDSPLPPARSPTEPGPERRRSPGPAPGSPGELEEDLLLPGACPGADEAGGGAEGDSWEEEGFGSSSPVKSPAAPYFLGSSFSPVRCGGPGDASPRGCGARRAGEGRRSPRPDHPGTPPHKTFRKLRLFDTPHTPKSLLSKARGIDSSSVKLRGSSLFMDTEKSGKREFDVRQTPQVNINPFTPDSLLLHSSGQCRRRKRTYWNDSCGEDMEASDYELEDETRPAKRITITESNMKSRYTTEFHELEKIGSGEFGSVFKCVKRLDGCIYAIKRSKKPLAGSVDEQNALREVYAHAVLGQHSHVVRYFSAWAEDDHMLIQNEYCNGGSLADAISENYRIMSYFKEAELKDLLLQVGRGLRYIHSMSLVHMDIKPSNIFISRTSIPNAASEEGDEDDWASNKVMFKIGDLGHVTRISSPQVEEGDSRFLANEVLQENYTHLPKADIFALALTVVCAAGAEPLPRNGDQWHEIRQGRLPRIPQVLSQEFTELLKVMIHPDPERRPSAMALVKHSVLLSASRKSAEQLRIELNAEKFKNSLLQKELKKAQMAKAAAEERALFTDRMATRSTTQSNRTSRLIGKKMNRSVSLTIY

Take `C=CCn1c(=O)c2cnc(Nc3ccc4c(c3)CN(C(C)=O)CC4)nc2n1-c1cccc(C(C)(C)O)n1` [Example 8, 6-((2-Acetyl-1,2,3,4-tetrahydroisoquinolin-7-yl)amino)-2-allyl-1-(6-(2-hydroxypropan-2-yl)pyridin-2-yl)-1,2-dihydro-3H-pyrazolo[3,4-d]pyrimidin-3-one]: the half-maximal inhibitory concentration (IC50) in test [1] was less than 10 nM; in test [2] it was 100 to 1000 nM; in test [3], more than 1000 nM.
For `C=CCn1c(=O)c2cnc(Nc3ccc4c(c3)CN(CCO)CC4)nc2n1-c1cccc(C(C)(C)O)n1` [Example 13, 2-Allyl-6-((2-(2-hydroxyethyl)-1,2,3,4-tetrahydroisoquinolin-7-yl)amino)-1-(6-(2-hydroxypropan-2-yl)pyridin-2-yl)-1,2-dihydro-3H-pyrazolo[3,4-d]pyrimidin-3-one hydrochloride], in that order: less than 10 nM, more than 1000 nM and 100 to 1000 nM.
Take `C=CCn1c(=O)c2cnc(Nc3ccc4c(c3)CCNC4)nc2n1-c1cccc(C(C)(C)O)n1` [Example 15, 2-Allyl-1-(6-(2-hydroxypropan-2-yl)pyridin-2-yl)-6-((1,2,3,4-tetrahydroisoquinolin-6-yl)amino)-1,2-dihydro-3H-pyrazolo[3,4-d]pyrimidin-3-one hydrogen chloride]: the IC50 in test [1] is less than 10 nM; in test [2] it was more than 1000 nM; in test [3] it was 100 to 1000 nM.
The corresponding values for `C=CCn1c(=O)c2cnc(Nc3ccc4c(c3)CCN(C)C4)nc2n1-c1cccc(C(C)(C)O)n1` [Example 16, 2-Allyl-1-(6-(2-hydroxypropan-2-yl)pyridin-2-yl)-6-((2-methyl-1,2,3,4-tetrahydroisoquinolin-6-yl)amino)-1,2-dihydro-3H-pyrazolo[3,4-d]pyrimidin-3-one] are less than 10 nM, more than 1000 nM and less than 100 nM.
With `C=CCn1c(=O)c2cnc(Nc3ccc4c(c3)C(=O)NCC4)nc2n1-c1cccc(C(C)(C)O)n1` [Example 19, 7-((2-Allyl-1-(6-(2-hydroxypropan-2-yl)pyridin-2-yl)-3-oxo-2,3-dihydro-1H-pyrazolo[3,4-d]pyrimidin-6-yl)amino)-3,4-dihydroisoquinolin-1(2H)-one], the 50% inhibitory concentration (IC50) in test [1] was less than 10 nM; in test [2], more than 1000 nM; in test [3], more than 1000 nM.
As to `C=CCn1c(=O)c2cnc(Nc3ccc4c(c3)C(=O)N(C)CC4)nc2n1-c1cccc(C(C)(C)O)n1` [Example 20, 7-((2-Allyl-1-(6-(2-hydroxypropan-2-yl)pyridin-2-yl)-3-oxo-2,3-dihydro-H-pyrazolo[3,4-d]pyrimidin-6-yl)amino)-2-methyl-3,4-dihydroisoquinolin-1(2H)-one], the IC50 in test [1] was less than 10 nM; in test [2], 100 to 1000 nM; in test [3], 100 to 1000 nM.
Regarding `C=CCn1c(=O)c2cnc(Nc3ccc4c(c3)CC(N(C)C)C4)nc2n1-c1cccc(C(C)(C)O)n1` (stereo not drawn) [Example 22, 2-allyl-6-((2-(dimethylamino)-2,3-dihydro-1H-inden-5-yl)amino)-1-(6-(2-hydroxypropan-2-yl)pyridin-2-yl)-1,2-dihydro-3H-pyrazolo[3,4-d]pyrimidin-3-one], the IC50 is less than 10 nM in test [1], more than 1000 nM in test [2] and 100 to 1000 nM in test [3].
